Assay results as given in paper PMC4864240, “Biotype Characterization, Developmental Profiling, Insecticide Response and Binding Property of Bemisia tabaci Chemosensory Proteins: Role of CSP in Insect Defense” (PLoS ONE, 2016).
Where two headings read alike, the source gives them in different places.

How the values were obtained:
[1] = molecular target: T1, BtabCSP2 (Bemisia tabaci, UniProt H6UKS9); experiment: biochemical; assay type: binding
T1 sequence (H6UKS9 22-131): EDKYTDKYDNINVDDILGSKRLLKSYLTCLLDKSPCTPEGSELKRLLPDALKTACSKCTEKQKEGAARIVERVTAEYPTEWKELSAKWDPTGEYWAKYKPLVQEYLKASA
Description: (§1) Protein-ligand binding affinity was determined for the three recombinant proteins. Emission fluorescence spectra were recorded on a Jasco FP-6500 Series fluorescence spectrofluorometer. […] Fluorescence was measured using an exciting wavelength of 337 nm. Emission spectrum was recorded between 350 and 500 nm.

[2] = molecular target: T2, BtabCSP3 (Bemisia tabaci, UniProt A0A097GUB5); experiment: biochemical; assay type: binding
T2 sequence (A0A097GUB5 21-138): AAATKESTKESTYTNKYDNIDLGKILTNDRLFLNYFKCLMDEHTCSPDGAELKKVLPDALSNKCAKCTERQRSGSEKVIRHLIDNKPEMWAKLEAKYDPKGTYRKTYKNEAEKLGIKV
Description: as §1

[3] = molecular target: T3, BtabCSP1 (Bemisia tabaci, UniProt D6N3A3); experiment: biochemical; assay type: binding
T3 sequence (D6N3A3 20-126): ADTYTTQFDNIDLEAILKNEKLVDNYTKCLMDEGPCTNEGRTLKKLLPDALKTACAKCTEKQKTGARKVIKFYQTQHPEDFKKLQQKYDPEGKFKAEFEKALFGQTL
Description: as §1

[4] = system: B. tabaci Q-biotype adults; experiment: Thiamethoxam cotton leaf-dip exposure, gene expression by qRT-PCR, biotype Q; assay type: in vivo, Bemisia tabaci
Description: (§2) One-step Reverse transcriptase PCR (TAKARA Bio. Inc) was used to check for tissue-distribution of CSP1 following the method described in Liu et al.. qRT-PCR was used to measure the changes of CSP1, CSP2 and CSP3 gene expression during development and over insecticide exposure. In a typical qRT-PCR experiment, cDNA templates (20 ng/μl) were used in a total volume of 20 μl containing SYBR Green I PCR Master Mix (Roche) and 200 nM of each primer, using 96-well optical-grade PCR plates and matched optical-grade membrane of StepOne Plus ABI system. qPCR primers were specifically designed to generate an amplicon of about 100–150 bps:
(§3) qRT-PCR products were sequenced to attest primer specificity. Each sample in B and Q was analyzed in triplicates. Three biological samples were used for each time point at each developmental stage and in the experiments on the effects of insecticide on the expression of CSP genes (see below). Reactions were run in a StepOne Plus system with initial denaturing step consisting of 2 min at 50°C and 10 min at 95°C, followed by 40 cycles of 15 s at 95°C-30 s at 60°C and terminated by a dissociation curve program from 60 to 95°C with a heating rate of 0.1°C and a continuous fluorescence acquisition. Expression levels were determined using the relative 2(-Delta Delta C(T)) method. Data were statistically analyzed by one-way Anova in SPSS.
(§4) Thiamethoxam is one major neonicotinoid insecticide, known to act on the nicotinic acetylcholine receptors (nAChR) within the insect central nervous system. To expose B. tabaci to the neonicotinoid insecticide thiamethoxam (25% WG, Syngenta, China), we chose the cotton leaf-dip method. One week<-old adult forms from the laboratory colonies of B- and Q-biotypes of B. tabaci were collected separately and exposed in the laboratory conditions (26°C temperature, 60% humidity, 16/8 h day/night) to 0, 6.25, 12.5, 25 and 50 μg/ml of thiamethoxam, respectively. Significant mortality rate was observed only for higher doses […] at different exposure time.
(§5) The experiment started (time 0) when insecticide treated and non-treated plant discs (2.5 cm diameter) were individually placed on agar base in 20-ml glass vials.Twenty-eight whiteflies belonging either to B or Q-biotype were aspirated into each vial. Vials were capped with an absorbent cotton stopper and inverted. Insecticide-treated whiteflies fed in treated vials on cotton plant leaf discs dipped for 10 s in formulated thiamethoxam diluted with distilled water. Whiteflies kept in vials containing cotton plant leaf discs of the same diameter dipped for 10 s in distilled water only were used as controls (0 μg/ml of thiamethoxam). After 1, 4, 24, 48 and 72 h post-exposure, all individuals in each category were collected in an eppendorf tube in treated and untreated groups of whiteflies in each of the two biotypes, kept on ice for 10 min and freeze-dried in nitrogen before storage at -70°C.

[5] = system: B. tabaci B-biotype adults; experiment: Thiamethoxam cotton leaf-dip exposure, gene expression by qRT-PCR, biotype B; assay type: in vivo, Bemisia tabaci
Description: as §2, §3, §4
as §5, with “After 1, 4, 24, 48 and 72 h post-exposure, all individuals in each category were collected in an eppendorf tube in treated and untreated groups of whiteflies in each of the two biotypes, kept on ice for 10 min and freeze-dried in nitrogen before storage at -70°C.” left out

[6] = system: B- and Q-biotypes of B. tabaci; experiment: Thiamethoxam cotton leaf-dip exposure, mortality; assay type: in vivo, Bemisia tabaci
Description: as §4
as §5, with “After 1, 4, 24, 48 and 72 h post-exposure, all individuals in each category were collected in an eppendorf tube in treated and untreated groups of whiteflies in each of the two biotypes, kept on ice for 10 min and freeze-dried in nitrogen before storage at -70°C.” left out

[7] = u.d. = binding constant not calculated, IC50>100 μM, read-out: BtabCSP2 Ki (u.d.)
[8] = u.d. = binding constant not calculated, IC50>100 μM, read-out: BtabCSP3 Ki (u.d.)
[9] = displacement of 1-NPN, read-out: IC50, BtabCSP1
[10] = u.d. = binding constant not calculated, IC50>100 μM, read-out: BtabCSP1 Ki (u.d.)
[11] = competitive binding vs 1-NPN, three replicates ± SD, read-out: BtabCSP1 Ki

Row | Structure (SMILES) | Ki [1, 7] | Ki [2, 8] | Ki [3, 10] | other results
1 | CC1=CC=C(C(C)C)CC1 [α-Terpinene] | > 100 µM | > 100 µM | > 100 µM | IC50 [3, 9]: 14.6 to 95.1 µM
2 | CCC/C=C/C=O [Trans-2-hexenal] | > 100 µM | > 100 µM | > 100 µM | 
3 | CCCCCCCC(=O)O [Octanoic acid] | > 100 µM | > 100 µM | > 100 µM | IC50 [3, 9]: 14.6 to 95.1 µM
4 | CCCCC(CC)CO (stereo not drawn) [2-Ethyl-hexanol] | > 100 µM | > 100 µM | > 100 µM | 
5 | Cc1cccc(C)c1 [m-Xylene] | > 100 µM | > 100 µM |  | Ki [3, 11]: 55.5 ± 3.14 µM; IC50 [3, 9]: 14.6 to 95.1 µM
6 | CC(C)=CCC/C(C)=C/CC/C(C)=C/CO [Trans,trans-Farnesol] | > 100 µM | > 100 µM | > 100 µM | 
7 | C=CC(=C)CCC=C(C)C [Myrcene] | > 100 µM | > 100 µM | > 100 µM | IC50 [3, 9]: 14.6 to 95.1 µM
8 | C=C(C)[C@H]1CC=C(C)CC1 [R(+)-Limonene] | > 100 µM | > 100 µM |  | Ki [3, 11]: 47.8 ± 1.56 µM
9 | C=CC(C)(O)CC/C=C(\C)CCC=C(C)C (racemic) [(+/-)Nerolidol] | > 100 µM | > 100 µM | > 100 µM | IC50 [3, 9]: 14.6 to 95.1 µM
10 | CCCCCCCCCCCC=O [Dodecyl aldehyde] | > 100 µM | > 100 µM | > 100 µM | 
11 | CCCCCCCCCCCCC [n-Tridecane] | > 100 µM | > 100 µM | > 100 µM | 
12 | CCCCC=O [Valeraldehyde] | > 100 µM | > 100 µM | > 100 µM | 
13 | CCCCCC(C=O)=Cc1ccccc1 [α-Pentyl-cinnamaldehyde] |  |  |  | Ki ([1]; competitive binding vs 1-NPN, three replicates ± SD, listed as α-pentyl-cinnamaldehyde, read-out: BtabCSP2 Ki): 10.3 µM; Ki ([1]; competitive binding vs 1-NPN, three replicates ± SD, read-out: BtabCSP2 Ki): 10.3 ± 1.17 µM; IC50 ([1]; displacement of 1-NPN): 11.1 µM; Ki ([2]; competitive binding vs 1-NPN, three replicates ± SD, listed as α-pentyl-cinnamaldehyde, read-out: BtabCSP3 Ki): 5.8 µM; Ki ([2]; competitive binding vs 1-NPN, three replicates ± SD, read-out: BtabCSP3 Ki): 5.82 ± 0.31 µM; IC50 ([2]; displacement of 1-NPN): 6.5 µM; Ki [3, 11]: 12.6 ± 1.3 µM
14 | CN1COCN(Cc2cnc(Cl)s2)/C1=N\[N+](=O)[O-] [Thiamethoxam] |  |  |  | IC50 [3]: > 50 µM; CSP2 and CSP3 expression ([4]; 1-72 h, 0-50 μg/ml): no time/dose effect; CSP1 gene expression ([4]; 1 and 4 h, all five doses): no changes; CSP1 gene expression ([4]; 24 h, gradual concentrations): gradual increase; CSP1 gene expression ([4]; 48 h): No effects; increase in CSP1 gene expression (factor) ([4]; 72 h exposure, 12.5 and 50 μg/ml): 10–25; CYP6CM1 expression ([4]; sublethal dose): increased; CSP1 expression up-regulated ([4]; sublethal doses, 24 and 72 h): 10–20 fold; CSP1 expression, time/dose effect ([5]; 1-72 h, 0-50 μg/ml): did not observe such a time/dose effect; CSP2 and CSP3 expression ([5]; 1-72 h, 0-50 μg/ml): no time/dose effect; CSP1 gene expression ([5]; 1 and 4 h, all five doses): no changes; CYP6CX1 expression ([5]; sublethal dose): reduced; mortality ([6]; 100 μg/ml, 72 h exposure): killed most of the whiteflies; doses with significant mortality rate ([6]; different exposure time): > 100 µg/mL
15 | CC(=O)/C=C/C1=C(C)CCCC1(C)C [β-Ionone] |  |  |  | Ki [1]: > 100 µM; Ki [2]: > 100 µM; IC50 [3]: 14.6 to 95.1 µM; Ki ([3]; BtabCSP1 Ki, competitive binding vs 1-NPN, three replicates ± SD): 32.1 ± 1.48 µM
16 | CCCCCC=O [n-Hexaldehyde] | > 100 µM | > 100 µM | > 100 µM | 
17 | CC1=CCC2CC1C2(C)C (stereo not drawn) [α-Pinene] | > 100 µM | > 100 µM | > 100 µM | 
18 | CCCCCCC [n-Heptane] | > 100 µM | > 100 µM | > 100 µM | IC50 [3, 9]: 14.6 to 95.1 µM
19 | CCCCCC [n-Hexane] |  |  |  | Ki [1]: > 100 µM; Ki [2]: > 100 µM; Ki ([3]; BtabCSP1 Ki (u.d.)): > 100 µM
20 | CCC/C=C/CO [Trans-2-hexen-1-ol] | > 100 µM | > 100 µM |  | Ki [3, 11]: 46.1 ± 1.25 µM; IC50 [3, 9]: 14.6 to 95.1 µM
21 | CCCCCCCCC=O [Nonanal] | > 100 µM | > 100 µM | > 100 µM | 
22 | CCCCCCCCCCC [n-Undecane] | > 100 µM | > 100 µM | > 100 µM | 
23 | CC(=O)CCC=C(C)C [6-Methyl-5-hepten-2-one] |  |  |  | Ki [1]: > 100 µM; Ki [2]: > 100 µM; IC50 [3]: 14.6 to 95.1 µM; Ki ([3]; BtabCSP1 Ki (u.d.), u.d. = binding constant not calculated, IC50>100 μM): > 100 µM
24 | C=CCc1ccc(O)c(OC)c1 [Eugenol] | > 100 µM | > 100 µM | > 100 µM | 
25 | CC/C=C\CCOC(C)=O [(Z)-3-Hexenyl acetate] | > 100 µM | > 100 µM | > 100 µM | 
